Test results taken from US4777167A, “Pharmaceutically useful substituted thiacycloalkeno [3,2-b]pyridines, compositions and method of use” (Ortho Pharmaceutical Corporation, priority 1987, dated 1988).

Legend:
Aorta Muscle = experiment: Inhibition of aorta muscle contraction; type: cell-based; conditions: Table II; concentration 0.1 μM
trachealis muscle = experiment: Inhibition of calcium dependent smooth muscle contraction (KCl-challenged trachea); type: cell-based, dog; conditions: Canis lupus familiaris; Table II; concentration 0.1 μM; read-out: Inhibition Trachea Muscle Contraction % Inhibition
Description: The test for inhibition of calcium dependent smooth muscle contraction is determined according to the following procedure:
Trachea from dogs sacrificed by excess KCl injection are stored overnight at 4° C. in oxygenated Krebs-Henseleit buffer. Tracheal rings, one cartilage segment wide (5-10 mm), are cut starting from the bronchial end. After cutting the cartilage, the trachealis muscle tissue is suspended in oxygenated Krebs-Henseleit buffer at 37° C. in a 25 ml tissue bath. After a 60 minutes equilibration period, the tissues are challenged with 10 μM carbachol. After 5 minutes the tissues are rinsed and allowed to rest 50 minutes. The tissues are then challenged with 50 mM KCl and, after 30 minutes, the contractions are quantitated. The tissues are then rinsed and reequilibrated for 50 minutes. Test compounds are then added for 10 minutes, and the tissue is rechallenged with 50 mMKcl. After 30 minutes, the contraction is recorded and used to determine the % inhibition of control.
The percent inhibition of smooth muscle contraction is calculated from response data before and after drug treatment. [formula] A rating is assigned to the compound depending upon the percent inhibition obtained.

calcium channels = target: T1, calcium channels (Oryctolagus cuniculus, UniProt P15381); experiment: Inhibition of nitrendipine binding (3H-nitrendipine displacement, rabbit heart membranes); design: species or system rabbit (New Zealand white); conditions: Table II, 90 min, 4° C.
T1 construct: from tissue; host or cells: heart of female New Zealand white rabbits, membrane fraction (42,000×g pellet)
T1 sequence (P15381 whole entry, other chains not shown): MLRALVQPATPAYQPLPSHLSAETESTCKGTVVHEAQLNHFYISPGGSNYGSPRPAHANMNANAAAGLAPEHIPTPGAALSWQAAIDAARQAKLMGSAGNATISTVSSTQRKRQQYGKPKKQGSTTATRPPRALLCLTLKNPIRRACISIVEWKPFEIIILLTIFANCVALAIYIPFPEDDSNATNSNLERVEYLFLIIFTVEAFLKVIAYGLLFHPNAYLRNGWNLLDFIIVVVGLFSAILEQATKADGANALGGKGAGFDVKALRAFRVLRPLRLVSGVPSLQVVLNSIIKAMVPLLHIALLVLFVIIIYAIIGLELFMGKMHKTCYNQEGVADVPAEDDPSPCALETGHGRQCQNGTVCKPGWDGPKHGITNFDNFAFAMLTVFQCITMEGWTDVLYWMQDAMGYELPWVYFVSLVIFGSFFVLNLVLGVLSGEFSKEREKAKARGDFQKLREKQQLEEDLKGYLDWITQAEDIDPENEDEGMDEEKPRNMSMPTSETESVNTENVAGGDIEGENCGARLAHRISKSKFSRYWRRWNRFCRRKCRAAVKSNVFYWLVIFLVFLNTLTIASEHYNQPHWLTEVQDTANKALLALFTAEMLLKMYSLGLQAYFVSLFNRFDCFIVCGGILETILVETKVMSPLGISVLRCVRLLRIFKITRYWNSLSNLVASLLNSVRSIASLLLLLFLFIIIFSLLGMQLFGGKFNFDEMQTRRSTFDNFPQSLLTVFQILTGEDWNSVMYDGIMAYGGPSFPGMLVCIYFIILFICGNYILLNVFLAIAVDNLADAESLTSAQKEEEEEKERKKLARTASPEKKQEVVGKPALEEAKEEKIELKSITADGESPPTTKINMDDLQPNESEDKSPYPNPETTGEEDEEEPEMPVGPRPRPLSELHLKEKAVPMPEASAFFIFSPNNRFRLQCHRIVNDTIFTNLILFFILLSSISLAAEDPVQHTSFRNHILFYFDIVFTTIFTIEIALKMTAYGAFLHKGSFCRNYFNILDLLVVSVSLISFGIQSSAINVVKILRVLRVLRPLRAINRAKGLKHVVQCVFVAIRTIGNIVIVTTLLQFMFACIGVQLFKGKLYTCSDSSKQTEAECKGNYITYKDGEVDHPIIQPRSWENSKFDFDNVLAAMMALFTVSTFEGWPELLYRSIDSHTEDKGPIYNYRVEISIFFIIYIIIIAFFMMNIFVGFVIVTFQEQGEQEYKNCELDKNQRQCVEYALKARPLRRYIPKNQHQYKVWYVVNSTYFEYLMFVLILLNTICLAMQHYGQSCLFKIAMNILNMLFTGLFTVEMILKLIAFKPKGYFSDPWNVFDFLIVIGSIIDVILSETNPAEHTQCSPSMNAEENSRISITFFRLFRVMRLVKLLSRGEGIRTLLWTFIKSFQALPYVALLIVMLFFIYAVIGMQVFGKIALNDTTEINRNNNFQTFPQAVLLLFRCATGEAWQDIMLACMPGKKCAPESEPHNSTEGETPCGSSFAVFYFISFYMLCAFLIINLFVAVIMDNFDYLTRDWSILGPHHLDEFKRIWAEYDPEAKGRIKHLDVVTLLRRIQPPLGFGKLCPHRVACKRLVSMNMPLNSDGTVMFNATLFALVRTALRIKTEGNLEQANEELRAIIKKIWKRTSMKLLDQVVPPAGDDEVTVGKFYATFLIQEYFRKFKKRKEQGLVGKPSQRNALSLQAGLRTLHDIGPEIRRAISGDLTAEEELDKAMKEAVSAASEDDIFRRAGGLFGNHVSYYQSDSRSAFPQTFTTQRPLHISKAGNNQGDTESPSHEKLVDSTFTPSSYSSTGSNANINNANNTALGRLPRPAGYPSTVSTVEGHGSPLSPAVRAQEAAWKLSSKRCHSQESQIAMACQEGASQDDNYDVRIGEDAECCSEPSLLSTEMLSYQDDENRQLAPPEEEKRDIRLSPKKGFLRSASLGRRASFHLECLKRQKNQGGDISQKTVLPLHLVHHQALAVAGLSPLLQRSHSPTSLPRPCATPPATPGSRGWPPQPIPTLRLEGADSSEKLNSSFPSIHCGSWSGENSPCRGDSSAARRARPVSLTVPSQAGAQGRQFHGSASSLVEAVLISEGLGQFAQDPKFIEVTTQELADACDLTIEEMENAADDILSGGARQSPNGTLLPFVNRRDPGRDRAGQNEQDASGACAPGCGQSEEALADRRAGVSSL
T1 sequence (P13806 27-960 partner limits assumed, other chains not shown): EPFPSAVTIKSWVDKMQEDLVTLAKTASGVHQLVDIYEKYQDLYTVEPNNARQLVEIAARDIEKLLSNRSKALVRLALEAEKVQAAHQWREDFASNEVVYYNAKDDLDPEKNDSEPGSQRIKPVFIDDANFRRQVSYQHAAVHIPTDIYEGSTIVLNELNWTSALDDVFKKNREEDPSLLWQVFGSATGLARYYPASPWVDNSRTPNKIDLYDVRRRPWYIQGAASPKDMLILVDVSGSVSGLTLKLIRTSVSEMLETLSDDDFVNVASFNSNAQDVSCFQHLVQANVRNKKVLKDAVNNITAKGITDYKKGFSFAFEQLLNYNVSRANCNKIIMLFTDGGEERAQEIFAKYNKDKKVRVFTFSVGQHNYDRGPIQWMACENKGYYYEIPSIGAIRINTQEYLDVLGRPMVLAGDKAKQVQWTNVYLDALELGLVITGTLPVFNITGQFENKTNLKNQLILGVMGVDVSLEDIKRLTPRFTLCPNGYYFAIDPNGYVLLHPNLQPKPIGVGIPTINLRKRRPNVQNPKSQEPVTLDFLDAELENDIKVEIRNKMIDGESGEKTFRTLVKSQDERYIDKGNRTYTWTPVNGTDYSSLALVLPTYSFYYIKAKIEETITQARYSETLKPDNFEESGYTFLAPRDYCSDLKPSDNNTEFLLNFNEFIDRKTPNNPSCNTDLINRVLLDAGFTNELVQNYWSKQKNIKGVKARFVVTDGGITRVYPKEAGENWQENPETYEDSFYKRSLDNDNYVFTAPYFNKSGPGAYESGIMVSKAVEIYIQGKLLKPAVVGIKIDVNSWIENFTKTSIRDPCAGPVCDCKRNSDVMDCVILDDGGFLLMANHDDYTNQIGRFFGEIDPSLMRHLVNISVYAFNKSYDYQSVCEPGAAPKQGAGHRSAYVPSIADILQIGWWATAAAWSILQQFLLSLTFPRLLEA
T1 sequence (P13806 961-1106 partner limits assumed, other chains not shown): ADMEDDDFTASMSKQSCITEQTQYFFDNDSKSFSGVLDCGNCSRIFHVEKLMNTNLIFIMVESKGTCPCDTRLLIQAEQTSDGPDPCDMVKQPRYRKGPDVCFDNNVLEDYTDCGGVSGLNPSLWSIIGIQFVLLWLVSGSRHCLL
Description: (1) Inhibition of nitrendipine binding to calcium channels.
The assay for inhibition of nitrendipine binding follows the following procedure:
Female, New Zealand white rabbits (1-2 kg) are sacrificed by cervical dislocation, and the heart is immediately removed, cleaned, and chopped into small pieces. The tissue is homogenized in 5× volume of 0.05M Hepes buffer, pH 7.4. The homogenate is centrifuged at 4000×g for 10 minutes; the supernatant is recentrifuged at 42,000×g for 90 minutes. The resulting membrane pellet is resuspended (0.7 ml/g weight) in 0.05M Hepes, pH 7.4 and stored at -70° C. until used. Each tube of the binding assay contains ^3 H- nitrendipine (0.05-0.50 nM), buffer, membranes (0.10 ml), and test compound in a total volume of 1.0 ml. After 90 minutes at 4° C., the bound nitrendipine is separated from the unbound by filtration on Whatman GF/C fibers. After rinsing, the filters are dried and counted in a liquid scintillation counter.
Non-specific binding of ^3 H-nitrendipine (that amount bound in the presence of excess unlabelled nitrendipine) is subtracted from the total bound to obtain specifically bound radiolabeled nitrendipine. The amount of specifically bound nitrendipine in the presence of a test compound is compared to that amount bound in the absence of a compound. A percent displacement (or inhibition) can then be obtained.

IC50 (calcium channels): 0.2 µM
SMILES: CC1=C(C(=O)OCCN(C)Cc2ccccc2)C(c2cccc(C(F)(F)F)c2Cl)C2=C(CCCCCS2(=O)=O)N1 (stereo not drawn) [5 2-Cl,3-CF3C6 H3, N-Benzyl-N-methylaminoethyl 10-(2-chloro-3-trifluoromethylphenyl)-3,4,5,6,7,10-hexahydro-8-methyl-1,1-dioxothiacycloocteno[3,2-b]pyridine-9-carboxylate]
inhibition at 0.1 µM (Aorta Muscle): 78% | inhibition at 0.1 µM (trachealis muscle): 57%
